Measurements published in patent US12098144B2, “Piperazine indazole glucocorticoid receptor antagonists” (Corcept Therapeutics Incorporated, priority 2021, dated 2024).

Columns and labels:
glucocorticoid receptor [1] = target: T1, glucocorticoid receptor (Homo sapiens, UniProt P04150); experiment: Hep G2 TAT IC50: inhibition of dexamethasone-induced TAT in HepG2 cells (384 well); type: cell-based
T1 construct: endogenous in cells; ATCC cat
T1 sequence (P04150 1-777): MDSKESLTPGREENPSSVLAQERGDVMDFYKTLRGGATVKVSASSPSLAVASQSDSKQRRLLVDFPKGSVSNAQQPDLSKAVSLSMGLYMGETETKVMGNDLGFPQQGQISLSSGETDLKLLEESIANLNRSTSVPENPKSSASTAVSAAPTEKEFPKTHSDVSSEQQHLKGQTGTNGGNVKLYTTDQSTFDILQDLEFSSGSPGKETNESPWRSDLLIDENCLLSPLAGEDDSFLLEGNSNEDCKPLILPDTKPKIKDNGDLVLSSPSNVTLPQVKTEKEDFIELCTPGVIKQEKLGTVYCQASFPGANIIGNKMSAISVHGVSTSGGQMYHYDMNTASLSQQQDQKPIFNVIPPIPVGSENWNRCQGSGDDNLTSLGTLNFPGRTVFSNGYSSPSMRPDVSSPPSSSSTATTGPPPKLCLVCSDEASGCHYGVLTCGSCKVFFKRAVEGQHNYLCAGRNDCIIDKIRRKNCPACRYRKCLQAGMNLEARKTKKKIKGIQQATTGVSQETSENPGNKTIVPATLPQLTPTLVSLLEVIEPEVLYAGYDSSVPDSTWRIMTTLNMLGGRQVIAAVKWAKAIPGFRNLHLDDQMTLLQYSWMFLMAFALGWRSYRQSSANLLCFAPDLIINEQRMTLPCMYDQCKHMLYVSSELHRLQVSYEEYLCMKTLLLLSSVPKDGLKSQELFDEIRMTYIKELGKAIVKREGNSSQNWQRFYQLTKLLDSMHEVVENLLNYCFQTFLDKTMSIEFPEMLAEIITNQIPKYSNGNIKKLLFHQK
Protocol: Glucocorticoid mediated activation of TAT occurs by transactivation of glucocorticoid response elements in the TAT promoter by glucocorticoid receptor/agonist complex.
HepG2 cells were cultured using MEME media supplemented with 10% (v/v) foetal bovine serum, 2 mM L-glutamine, 1% (v/v) NEAA, and 1% (v/v) penstrep, at 37° C., 5%/95% (v/v) CO2/air.
Compounds were diluted from a 10 mM stock via an Echo Acoustic liquid handler into 10 μL assay media to generate a 10-point half-log dilution curve.
HepG2 cells were then lysed with 8 μL of cell lysis buffer containing a protease inhibitor cocktail for 15 minutes at 25° C. […] After a 2-hour incubation at 37° C. the reaction was terminated by the addition of 8 μL of 5 M aqueous potassium hydroxide solution, and the plates incubated for a further 30 minutes at 37° C.
[compound] and fitting the data to a 4-parameter logistic equation.

glucocorticoid receptor [2] = target: T1, glucocorticoid receptor; experiment: Hep G2 TAT Ki: inhibition of dexamethasone-induced TAT in HepG2 cells (96 well); type: cell-based; conditions: challenge of 100 nM dexamethasone, IC50 converted to Ki by Cheng and Prusoff equation
Summary of the method: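 Cells lysed 15 min at 4 °C; TAT enzyme reaction 2 h at 37 °C, stopped with KOH, 30 min further at 37 °C. Inhibition fitted to 4-parameter logistic.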

IC50 (glucocorticoid receptor [1])	Ki (glucocorticoid receptor [2])	Structure (SMILES)
1280 nM		Cc1cc2c(cnn2-c2ccc(=O)n(C)c2)cc1C1CN(S(=O)(=O)N2CCOCC2)CCN1CCC(F)(F)F (centres unmarked) [Example 198, 1-methyl-5-(6-methyl-5-(4-morpholinosulfonyl-1-(3,3,3-trifluoropropyl)piperazin-2-yl)indazol-1-yl)pyridin-2-one]
933 nM		Cc1cc2c(cnn2-c2cc(F)c(=O)n(C)c2)cc1C1CN(S(=O)(=O)c2cnn(C)n2)CCN1CCC(F)(F)F (centres unmarked) [Example 207, 3-fluoro-1-methyl-5-(6-methyl-5-(4-(2-methyltriazol-4-yl)sulfonyl-1-(3,3,3-trifluoropropyl)piperazin-2-yl)indazol-1-yl)pyridin-2-one]
1220 nM		Cc1nc(S(=O)(=O)N2CCN(CC3CC(C)(C)C3)C(c3cc4cnn(-c5ccc(F)cc5)c4cc3C)C2)cs1 (single isomer, unassigned) [Example 185, 4-(4-((3,3-dimethylcyclobutyl)methyl)-3-(1-(4-fluorophenyl)-6-methyl-indazol-5-yl)piperazin-1-yl)sulfonyl-2-methyl-thiazole]
3980 nM		Cc1cc2c(cnn2-c2ccc(F)cc2)cc1C1CN(S(=O)(=O)N2CCOCC2)CCN1CCc1ccccc1 (single isomer, unassigned) [Example 215, 4-(3-(1-(4-fluorophenyl)-6-methyl-indazol-5-yl)-4-(2-phenylethyl)piperazin-1-yl)sulfonylmorpholine]
1660 nM		Cc1ncc(S(=O)(=O)N2CCN(CC3CCCC3)C(c3cc4cnn(-c5ccc(F)cc5)c4cc3C)C2)s1 (single isomer, unassigned) [Example 187, 5-(4-(cyclopentylmethyl)-3-(1-(4-fluorophenyl)-6-methyl-indazol-5-yl)piperazin-1-yl)sulfonyl-2-methyl-thiazole]
1320 nM		COc1cc2c(cnn2-c2ccc(F)cc2)cc1C1CN(S(=O)(=O)c2csc(C)n2)CCN1CCC(F)(F)F (centres unmarked) [Example 188, 4-(3-(1-(4-fluorophenyl)-6-methoxy-indazol-5-yl)-4-(3,3,3-trifluoropropyl)piperazin-1-yl)sulfonyl-2-methyl-thiazole]
3590 nM		Cc1cc2c(cnn2-c2ccc(F)cc2)cc1C1CN(S(=O)(=O)N(C)C)CCN1CC1CCC1 (single isomer, unassigned) [Example 182, 4-(cyclobutylmethyl)-3-(1-(4-fluorophenyl)-6-methyl-indazol-5-yl)-N,N-dimethyl-piperazine-1-sulfonamide]
1160 nM		Cc1nc(S(=O)(=O)N2CCN(CC3CCC3)C(c3cc4cnn(-c5ccc(F)cc5)c4cc3C)C2)cs1 (single isomer, unassigned) [Example 184, 4-(4-(cyclobutylmethyl)-3-(1-(4-fluorophenyl)-6-methyl-indazol-5-yl)piperazin-1-yl)sulfonyl-2-methyl-thiazole]
2400 nM		Cc1nc(S(=O)(=O)N2CCN(CC3CCCC3)C(c3cc4cnn(-c5ccc(F)cc5)c4cc3C)C2)cs1 (single isomer, unassigned) [Example 186, 4-(4-(cyclopentylmethyl)-3-(1-(4-fluorophenyl)-6-methyl-indazol-5-yl)piperazin-1-yl)sulfonyl-2-methyl-thiazole]
4010 nM		Cc1cccc(-n2ncc3cc(C4CN(S(=O)(=O)c5cnn(C)n5)CCN4CCC(F)(F)F)c(C)cc32)c1 (centres unmarked) [Example 200, 6-methyl-5-(4-(2-methyltriazol-4-yl)sulfonyl-1-(3,3,3-trifluoropropyl)piperazin-2-yl)-1-(m-tolyl)indazole]
	330 nM	Cc1cc2c(cnn2-c2ccc(F)cc2)cc1C1CN(S(=O)(=O)c2cnn(C)n2)CCN1Cc1ccon1 (single isomer, unassigned) [Example 72, 3-((2-(1-(4-fluorophenyl)-6-methyl-1H-indazol-5-yl)-4-((2-methyl-2H-1,2,3-triazol-4-yl)sulfonyl)piperazin-1-yl)methyl)isoxazole]
	13 nM	Cc1cc2c(cnn2-c2ccc(F)cc2)cc1C1CN(S(=O)(=O)c2cnn(C)n2)CCN1CC1CCC1 (single isomer, unassigned) [Example 77, 5-(1-(cyclobutylmethyl)-4-((2-methyl-2H-1,2,3-triazol-4-yl)sulfonyl)piperazin-2-yl)-1-(4-fluorophenyl)-6-methyl-1H-indazole]
	43 nM	Cc1cc2c(cnn2-c2ccc(F)cc2)cc1C1CN(S(=O)(=O)c2cnn(C)n2)CCN1CC(C)(C)CO (single isomer, unassigned) [Example 82, 3-(2-(1-(4-fluorophenyl)-6-methyl-1H-indazol-5-yl)-4-((2-methyl-2H-1,2,3-triazol-4-yl)sulfonyl)piperazin-1-yl)-2,2-dimethylpropan-1-ol]
	71 nM	CC[C@H](C)N1CCN(S(=O)(=O)c2cnn(C)n2)C[C@@H]1c1cc2cnn(-c3ccc(F)cc3)c2cc1C (single isomer, unassigned) [Example 123, 5-(1-(sec-butyl)-4-((2-methyl-2H-1,2,3-triazol-4-yl)sulfonyl)piperazin-2-yl)-1-(4-fluorophenyl)-6-methyl-1H-indazole]
	7.5 nM	Cc1nc(S(=O)(=O)N2CCN(CC(C)C(F)(F)F)C(c3cc4cnn(-c5ccc(F)cc5)c4cc3C)C2)cs1 (single isomer, unassigned) [Example 146, 4-((3-(1-(4-fluorophenyl)-6-methyl-1H-indazol-5-yl)-4-(3,3,3-trifluoro-2-methylpropyl)piperazin-1-yl)sulfonyl)-2-methylthiazole]
	66 nM	Cc1cc2c(cnn2-c2ccc(F)cc2)cc1C1CN(S(=O)(=O)C2CC2)CCN1CC(C)C (centres unmarked) [Example 8, 5-(4-(cyclopropylsulfonyl)-1-isobutylpiperazin-2-yl)-1-(4-fluorophenyl)-6-methyl-1H-indazole]
	170 nM	Cc1cc2c(cnn2-c2ccc(F)cc2)cc1C1CN(S(=O)(=O)c2cnn(C)n2)CCN1CC1(F)CC1 (single isomer, unassigned) [Example 73, 5-(1-((1-fluorocyclopropyl)methyl)-4-((2-methyl-2H-1,2,3-triazol-4-yl)sulfonyl)piperazin-2-yl)-1-(4-fluorophenyl)-6-methyl-1H-indazole]
	310 nM	Cc1cc2c(cnn2-c2ccc(F)cc2)cc1C1CN(S(=O)(=O)CC2CC2)CCN1CC(C)C (single isomer, unassigned) [Example 46, 5-(4-((cyclopropylmethyl)sulfonyl)-1-isobutylpiperazin-2-yl)-1-(4-fluorophenyl)-6-methyl-1H-indazole]
	11 nM	Cc1ncc(S(=O)(=O)N2CCN(CC(C)C(F)(F)F)C(c3cc4cnn(-c5ccc(F)cc5)c4cc3C)C2)s1 (single isomer, unassigned) [Example 147, 5-((3-(1-(4-fluorophenyl)-6-methyl-1H-indazol-5-yl)-4-(3,3,3-trifluoro-2-methylpropyl)piperazin-1-yl)sulfonyl)-2-methylthiazole]
	23 nM	CCn1ncc(S(=O)(=O)N2CCN(CC(C)C)C(c3cc4cnn(-c5ccc(F)cc5)c4cc3C)C2)n1 (single isomer, unassigned) [Example 48, 5-(4-((2-ethyl-2H-1,2,3-triazol-4-yl)sulfonyl)-1-isobutylpiperazin-2-yl)-1-(4-fluorophenyl)-6-methyl-1H-indazole]
	150 nM	Cc1cc2c(cnn2-c2ccc(F)cc2)cc1C1CN(S(=O)(=O)c2cnn(C)n2)CCN1Cc1ccn(C)n1 (single isomer, unassigned) [Example 80, 1-(4-fluorophenyl)-6-methyl-5-(1-((1-methyl-1H-pyrazol-3-yl)methyl)-4-((2-methyl-2H-1,2,3-triazol-4-yl)sulfonyl)piperazin-2-yl)-1H-indazole]
	29 nM	Cc1cc2c(cnn2-c2ccc(F)cc2)cc1C1CN(S(=O)(=O)c2cnn(C)n2)CCN1CC1(F)CC1 (single isomer, unassigned) [Example 79, 5-(1-((1-fluorocyclopropyl)methyl)-4-((2-methyl-2H-1,2,3-triazol-4-yl)sulfonyl)piperazin-2-yl)-1-(4-fluorophenyl)-6-methyl-1H-indazole]
	74 nM	Cc1cc2c(cnn2-c2ccc(F)cc2)cc1C1CN(S(C)(=O)=O)CCN1Cc1ccccc1 (single isomer, unassigned) [Example 29, 5-(1-benzyl-4-(methylsulfonyl)piperazin-2-yl)-1-(4-fluorophenyl)-6-methyl-1H-indazole]
